Usually IC50 stands for the concentration at which inhibition is half-maximal.

The structures appear in SMILES notation. Like-named read-outs stand apart in the source and are kept apart here. Where only a bound is given, the exact number is not on record here.

One assay addresses T1, Wee1 kinase domain (Homo sapiens, UniProt P30291).
T1 construct: Wee1 kinase domain was purchased from Carna (catalog #05-177); purchased Carna 05-177
Put plainly: Wee1 Kinase Biochemical Assay (ADP-Glo). The conditions noted are these: 15 uM ATP. In a few lines: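 1 nM enzyme; 15 uM ATP; 2 ng/mL poly(Lys,Tyr 4:1); 40 mM Tris-HCl, 20 mM MgCl2, 0.1 mg/mL BSA, 2 mM DTT; 4 h, 25 °C; ADP-Glo; % inhibition vs DMSO and saturating positive-control wells.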
On the technique in general: ADP-Glo first removes unused ATP, then detects ADP through luciferase.

In assay [1] the test system is phosphorylation of Cdc2 Y15 (Wee1 substrate) in A427 cells. Put plainly: Phosphorylated Cdc2 MSD Electrochemiluminescence Assay. It is filed as cell-based. The conditions noted are these: Homo sapiens. How it is done:
Phosphorylated Cdc2 MSD Electrochemiluminescence Assay
The effect of Wee1 inhibitors on cellular phosphorylation of the Wee1 substrate Cdc2 was determined using the following protocol:
A total of 40,000 A427 cells in 100 uL culture medium (1640 medium+10% Fetal bovine serum+1% Penicillin-Streptomycin) were plated in 96-well cell culture plates. 3-fold serial dilutions of test compounds were prepared in completed PBS at 25× final concentration. After 20 hours, the plates were removed and 4 μL of each were added to the cells and incubated with shaking for 30 minutes at 37° C., 5% CO2. Each concentration was tested in duplicate. After a total 6 hours incubation, plates were removed and centrifuged for 5 minutes and 100 uL of supernatant from each well was removed. Cells were washed with 200 μL PBS and lysed with 50 μL MSD lysis buffer (Meso Scale Diagnostics) supplied with 1× complete ULTRA cocktail inhibitor (Roche).
To detect phosphorylation of Cdc2 Y15, 30 μL of capture antibody solution (CST catalog #9116S 1:200) was added into each well of the MSD plate (MSD catalog #L15XB-6), sealed and incubated at 4° C. with shaking (450 rpm) overnight. The antibody solution was removed, wells blocked with BSA solution and plates washed three times with PBST, followed by addition of 30 μl of cell lysate per well. After 2 hours of incubation, plates were washed three times with PBST. 30 μL of 1× detection antibody solution (CST catalog #4539S 1:200) was then added to each well and incubated for 1 hour. Plates were washed three times with PBST and 30 μL of 1× secondary antibody solution (MSD, catalog #:R32AB-1, 1:5000) was added to each well and incubated for 1 hour. Plates were washed three times with PBST and 150 μL of 1× Read Buffer T (MSD, catalog #R92TC-1) was added to each well of the MSD plate. The electrochemiluminescence signal was measured on a MESO SECTOR S600 plate reader. The percentage of remaining phosphorylated Cdc2 signal was calculated following the equation below.
[formula] • HC (high control): Cells treated with DMSO • Cpds: Cells treated with test compounds • LC (low control): Cells treated with positive control Wee1 inhibitor

The mark [2] stands for this setting: class symbols, 1 nM Wee1 enzyme, 4 hours at 25° C.
Where [3] appears, read: A-427, class symbols, read-out: A427 pCDC2 MSD IC50.

T1 sequence (P30291 299-569 limits assumed): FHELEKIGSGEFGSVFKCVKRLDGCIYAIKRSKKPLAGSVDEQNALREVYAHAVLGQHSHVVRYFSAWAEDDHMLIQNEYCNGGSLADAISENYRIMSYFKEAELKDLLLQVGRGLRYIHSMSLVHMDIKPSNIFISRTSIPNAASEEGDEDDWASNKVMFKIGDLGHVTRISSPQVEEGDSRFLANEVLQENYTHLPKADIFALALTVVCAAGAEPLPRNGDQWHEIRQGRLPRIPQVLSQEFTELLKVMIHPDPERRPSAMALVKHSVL

Turning to `CN1CC[C@@](C)(c2ccc(Nc3ncc4c(n3)N(c3cccc(N5CCOC5=O)n3)[C@@H]3CC(C)(C)OC[C@]43C)cc2)C1` [Example 670, 3-(6-((4bR,8aR)-2-((4-((S)-1,3-dimethylpyrrolidin-3-yl)phenyl)amino)-4b,7,7-trimethyl-4b,7,8,8a-tetrahydropyrano[3′,4′:4,5]pyrrolo[2,3-d]pyrimidin-9(5H)-yl)pyridin-2-yl)oxazolidin-2-one], the values for the IC50 (against Wee1 kinase domain (setting [2]); in assay [1] (setting [3])) were under 10 nM and 100 to 1000 nM, respectively.
As to `CNCc1cccc(N2c3nc(Nc4ccc([C@H]5CNC(=O)C5)cc4)ncc3[C@@]3(C)COC(C)(C)C[C@@H]23)n1` (single isomer, unassigned) [Example 61], the IC50 on Wee1 kinase domain (Wee1 kinase domain, ADP-Glo) is under 10 nM; in assay [1] (A-427, pCDC2 MSD), under 100 nM.
In the case of `Cc1cc(Nc2ncc3c(n2)N(c2cccc(N=S(C)(C)=O)n2)[C@@H]2CC(C)(C)OC[C@]32C)ccc1[C@H]1CCNC1` (single isomer, unassigned) [Example 149], the IC50 at Wee1 kinase domain (Wee1 kinase domain, ADP-Glo) was under 10 nM; in assay [1] (A-427, pCDC2 MSD) it was 100 to 1000 nM.
`CNCc1cccc(N2c3nc(Nc4ccc(N5CCN(C)CC5)c(C)c4)ncc3[C@@]3(C)COC(C)(C)C[C@@H]23)n1` (single isomer, unassigned) [Example 448]: the half-maximal inhibitory concentration (IC50) against Wee1 kinase domain (setting [2]) is under 10 nM; in assay [1] (setting [3]) it was 100 to 1000 nM.
Turning to `CN1CCN(c2ccc(Nc3ncc4c(n3)N(c3cccc(N=S(C)(C)=O)n3)[C@@H]3CC(C)(C)OC[C@]43C)cc2)CC1` [Example 100, Dimethyl((6-((4bR,8aR)-4b,7,7-trimethyl-2-((4-(4-methylpiperazin-1-yl)phenyl)amino)-4b,7,8,8a-tetrahydropyrano[3′,4′:4,5]pyrrolo[2,3-d]pyrimidin-9(5H)-yl)pyridin-2-yl)imino)-l6-sulfanone], the IC50 is under 10 nM on Wee1 kinase domain (Wee1 kinase domain, ADP-Glo) and under 100 nM in assay [1] (A-427, pCDC2 MSD).
With `CN[C@@H](c1cccc(N2c3nc(Nc4ccc(N5CCN(C)CC5)cc4)ncc3[C@@]3(C)COC(C)(C)C[C@@H]23)n1)C(F)(F)F` [Example 756, (4bR,8aR)-4b,7,7-trimethyl-N-(4-(4-methylpiperazin-1-yl)phenyl)-9-(6-((S)-2,2,2-trifluoro-1-(methylamino)ethyl)pyridin-2-yl)-4b,5,7,8,8a,9-hexahydropyrano[3′,4′:4,5]pyrrolo[2,3-d]pyrimidin-2-amine], the IC50 at Wee1 kinase domain (setting [2]) was under 10 nM; in assay [1] (setting [3]) it was 100 to 1000 nM.
With `CNCc1cccc(N2c3nc(Nc4ccc(C(=O)N5CCOCC5)cc4)ncc3[C@@]3(C)COC(C)(C)C[C@@H]23)n1` (single isomer, unassigned) [Example 24], the IC50 against Wee1 kinase domain (Wee1 kinase domain, ADP-Glo) was under 10 nM; in assay [1] (A-427, pCDC2 MSD) it was 100 to 1000 nM.
Consider `CC1(C)C[C@H]2N(c3cccc(N=S(C)(C)=O)n3)c3nc(Nc4cnn(C5COC5)c4)ncc3[C@@]2(C)CO1` (single isomer, unassigned) [Example 223], for which the IC50 against Wee1 kinase domain (Wee1 kinase domain, ADP-Glo) is under 10 nM; in assay [1] (A-427, pCDC2 MSD), 100 to 1000 nM.
As to `CN[C@H](C)c1cccc(N2c3nc(Nc4ccn(C5CCOCC5)c(=O)c4)ncc3[C@@]3(C)COC(C)(C)C[C@@H]23)n1` (single isomer, unassigned) [Example 391], the IC50 at Wee1 kinase domain (Wee1 kinase domain, ADP-Glo) was under 10 nM; in assay [1] (A-427, pCDC2 MSD) it was 100 to 1000 nM.
As for `CN1CCN(c2ccc(Nc3ncc4c(n3)N(c3nccs3)[C@@H]3CC(C)(C)OC[C@]43C)cc2)CC1` (single isomer, unassigned) [Example 726], the IC50 on Wee1 kinase domain (setting [2]) was under 10 nM; in assay [1] (setting [3]), 100 to 1000 nM.
Take `CNCc1cccc(N2c3nc(NC(=O)[C@@H]4C[C@H]4c4ccccc4)ncc3[C@@]3(C)COC(C)(C)C[C@@H]23)n1` [Example 760, (1R,2R)-2-phenyl-N-((4bR,8aR)-4b,7,7-trimethyl-9-(6-((methylamino)methyl)pyridin-2-yl)-4b,5,7,8,8a,9-hexahydropyrano[3′,4′:4,5]pyrrolo[2,3-d]pyrimidin-2-yl)cyclopropane-1-carboxamide]: the figures for the IC50 (at Wee1 kinase domain (setting [2]); in assay [1] (setting [3])) were under 10 nM and 100 to 1000 nM, respectively.
Consider `CN1CC[C@@H]2CN(c3ccc(Nc4ncc5c(n4)N(c4cccc(N6CCCC6=O)n4)[C@@H]4CC(C)(C)OC[C@]54C)cc3)C[C@@H]21` [Example 686, 1-(6-((4bR,8aR)-4b,7,7-trimethyl-2-((4-((3aR,6aR)-1-methylhexahydropyrrolo[3,4-b]pyrrol-5(1H)-yl)phenyl)amino)-4b,7,8,8a-tetrahydropyrano[3′,4′:4,5]pyrrolo[2,3-d]pyrimidin-9(5H)-yl)pyridin-2-yl)pyrrolidin-2-one], for which the results for the 50% inhibitory concentration (IC50) (on Wee1 kinase domain (setting [2]); in assay [1] (setting [3])) were under 10 nM and 100 to 1000 nM, respectively.
Turning to `CN1C[C@H]2C[C@@H]1CN2c1ccc(Nc2ncc3c(n2)N(c2cccc(C(C)(C)O)n2)[C@@H]2CC(C)(C)OC[C@]32C)cc1Cl` (single isomer, unassigned) [Example 433], the figures for the IC50 (against Wee1 kinase domain (setting [2]); in assay [1] (setting [3])) were under 10 nM and 100 to 1000 nM, respectively.
As to `CC1(C)C[C@H]2N(c3cccc(N=S(C)(C)=O)n3)c3nc(Nc4ccn([C@@H]5CCOC5)c(=O)c4)ncc3[C@@]2(C)CO1` (single isomer, unassigned) [Example 375], the IC50 at Wee1 kinase domain (Wee1 kinase domain, ADP-Glo) was under 10 nM; in assay [1] (A-427, pCDC2 MSD), 100 to 1000 nM.
Consider `CN1CCN(c2ccc(Nc3ncc4c(n3)N(c3ccn(C(F)(F)F)n3)[C@@H]3CC(C)(C)OC[C@]43C)cc2)CC1` (single isomer, unassigned) [Example 719], for which the values for the 50% inhibitory concentration (IC50) (at Wee1 kinase domain (setting [2]); in assay [1] (setting [3])) were under 10 nM and 1000 to 10000 nM, respectively.
`CN1[C@@H]2C[C@H]1CN(c1ccc(Nc3ncc4c(n3)N(c3cccc(N5CCCC5=O)n3)[C@@H]3CC(C)(C)OC[C@]43C)cc1)C2` [Example 703, 1-(6-((4bR,8aR)-4b,7,7-trimethyl-2-((4-((1R,5S)-6-methyl-3,6-diazabicyclo[3.1.1]heptan-3-yl)phenyl)amino)-4b,7,8,8a-tetrahydropyrano[3′,4′:4,5]pyrrolo[2,3-d]pyrimidin-9(5H)-yl)pyridin-2-yl)pyrrolidin-2-one]: the IC50 against Wee1 kinase domain (setting [2]) was under 10 nM; in assay [1] (setting [3]), 100 to 1000 nM.
On to `C[C@H]1COC(=O)N1c1cccc(N2c3nc(Nc4ccc(N5C[C@H]6C[C@@H]5CN6C)cc4)ncc3[C@]3(C)COC(C)(C)C[C@H]23)n1` (single isomer, unassigned) [Example 246], for which the IC50 lay within 10 to 100 nM on Wee1 kinase domain (Wee1 kinase domain, ADP-Glo) and 1000 to 10000 nM in assay [1] (A-427, pCDC2 MSD).
Regarding `CC1(C)CC2N(c3cccc([C@@H]4CCNC4)n3)c3nc(Nc4ccc(N5CCOCC5)cc4)ncc3C2(C)CO1` (stereo in doubt) [Example 539, (4bR,8aR)-4b,7,7-trimethyl-N-(4-morpholinophenyl)-9-(6-((R)-pyrrolidin-3-yl)pyridin-2-yl)-4b,5,7,8,8a,9-hexahydropyrano[3′,4′:4,5]pyrrolo[2,3-d]pyrimidin-2-amine], the half-maximal inhibitory concentration (IC50) against Wee1 kinase domain (setting [2]) is under 10 nM; in assay [1] (setting [3]) it was 100 to 1000 nM.
On to `C[C@H]1CCC(=O)N1c1cccc(N2c3nc(Nc4cnn(C5CCN(C)CC5)c4)ncc3C3(C)COC(C)(C)CC23)n1` (stereo in doubt) [Example 556, (S)-5-methyl-1-(6-((4bR,8aR)-4b,7,7-trimethyl-2-((1-(1-methylpiperidin-4-yl)-1H-pyrazol-4-yl)amino)-4b,7,8,8a-tetrahydropyrano[3′,4′:4,5]pyrrolo[2,3-d]pyrimidin-9(5H)-yl)pyridin-2-yl)pyrrolidin-2-one], for which the concentration for half-maximal inhibition (IC50) on Wee1 kinase domain (setting [2]) was under 10 nM; in assay [1] (setting [3]), 100 to 1000 nM.
Consider `CN1C[C@H]2C[C@@H]1CN2c1ccc(Nc2ncc3c(n2)N(c2cccc(N=S(C)(C)=O)n2)[C@@H]2CC(C)(C)OC[C@]32C)cc1` (single isomer, unassigned) [Example 122], for which the IC50 at Wee1 kinase domain (Wee1 kinase domain, ADP-Glo) was under 10 nM; in assay [1] (A-427, pCDC2 MSD), under 100 nM.
As for `CC1(C)C[C@H]2N(c3cccc(N4CCOC4=O)n3)c3nc(Nc4ccc([C@]5(C)CCNC5)cc4)ncc3[C@@]2(C)CO1` [Example 664, 3-(6-((4bR,8aR)-4b,7,7-trimethyl-2-((4-((S)-3-methylpyrrolidin-3-yl)phenyl)amino)-4b,7,8,8a-tetrahydropyrano[3′,4′:4,5]pyrrolo[2,3-d]pyrimidin-9(5H)-yl)pyridin-2-yl)oxazolidin-2-one], the figures for the IC50 (on Wee1 kinase domain (setting [2]); in assay [1] (setting [3])) were under 10 nM and 100 to 1000 nM, respectively.
Regarding `CN1CCC[C@H]1c1ccc(Nc2ncc3c(n2)N(c2cccc(N=S(C)(C)=O)n2)[C@@H]2CC(C)(C)OC[C@]32C)cc1` (single isomer, unassigned) [Example 126], the IC50 was under 10 nM against Wee1 kinase domain (Wee1 kinase domain, ADP-Glo) and under 100 nM in assay [1] (A-427, pCDC2 MSD).
